Measured values from patent US7026318B2 (Shionogi & Co., Ltd., priority 2000, dated 2006).
pIC50: −log10 of the molar value.

What was measured:
human type X sPLA2 [1] = molecular target: T1, human type X sPLA2 (Homo sapiens, UniProt O15496); test: Human type X sPLA2-induced oleic acid release in human colon carcinoma HT-29 cells; assay type: cell-based; conditions: compound 10 μM, 100 nM human type X sPLA2, 30 min, percentage of the increase by type X sPLA2 (no treatment group = 100)
T1 construct: made in house; unpurified culture supernatant
T1 sequence (O15496 43-165): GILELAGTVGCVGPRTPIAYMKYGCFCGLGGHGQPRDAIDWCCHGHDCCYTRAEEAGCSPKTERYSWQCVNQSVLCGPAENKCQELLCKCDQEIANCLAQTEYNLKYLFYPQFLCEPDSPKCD
Method: Examination 15: Effects of sPLA2 Inhibitors on Human Type X sPLA2-Induced Oleic Acid Release in Human Colon Calcinoma Cell Lines, HT-29 Cells.
Human colon calcinoma cell lines, HT-29 cells (obtained from ATCC) were cultured in DMEM supplemented with 10% fetal calf serum. The cells were washed by phosphate-buffered saline (PBS), detached from culture plates by treatment with trypsin/EDTA solution and further washed by PBS. The resulting cells were resuspended in Hanks' buffered saline containing 0.1% bovine serum albumin (BSA) at a density of 12.5×10^6 cells/mL. Aliquots of the cell suspension (0.4 ml) were transferred into polypropylene tubes and test compounds dissolved in DMSO solution (final concentration; 10 μM) were added. After preincubation for 10 min at 37° C., 100 nM purified human type X sPLA2 enzyme (Hanasaki et al J. Biol. Chem. (1999) 274, 34203–34211) was added (final volume of 0.5 mL). After incubation for 30 min at 37° C., the reaction was stopped by the addition of 2 ml Dole's reagent (heptane:2-propanol:1M H2SO4=10:40:1, v/v/v).

human type X sPLA2 [2] = molecular target: T1, human type X sPLA2; test: Inhibition test of human secretory phospholipase A2, chromogenic assay, type X enzyme; assay type: biochemical
human type X sPLA2 [3] = molecular target: T1, human type X sPLA2; test: Type X sPLA2-induced fatty acid release from isolated human lipoproteins (LDL); assay type: biochemical; conditions: compound 10 μM; human LDL 0.5 mg/mL; 10 nmol/L human type X sPLA2, 4 hr at 37° C.; read-out: % of Inhibition (10 μM)
Method: Examination 17: Effects of sPLA2 Inhibitors on Type X sPLA2-Induced Fatty Acid Release From Isolated Human Lipoproteins.
LDL was isolated from human plasma by sequential ultracentrifugation method (Havel et al. J. Clin. Invest. 34,1345–1353 (1955)). LDL (0.5 mg/mL) was incubated with 10 nmol/L of human type X sPLA2 in the assay mixture containing 12.5 mmol/L Tris-HCl buffer (pH 8.0), 125 mg/L bovine serum albumin and 1 mmol/L calcium chloride for 4 hr at 37° C. Fatty acids released from lipoprotein were extracted by Dole's method (Dole et al. J. Biol. Chem. 235, 2595–2599 (1960)), labeled with 9-anthryldiazomethane according to a known method (Hanasaki et al., J. Biol. Chem. 274, 34203–34211 (1999)) and measured by detecting the fluorescence of labeled fatty acids using reverse-phase high performance chromatography (LiChroCART 125-4 Superspher 100 RP-18 column (Merck). For the inhibition assay of drugs, sPLA2 inhibitors (final concentration of 10 μM) were added at almost the same time as the addition of sPLA2 into the reaction solution. The results are presented in Table 10.

[4] = molecular target: human type I enzyme (sPLA2) (Homo sapiens, UniProt P04054); test: Inhibition test of human secretory phospholipase A2, chromogenic assay, type I enzyme; assay type: biochemical; conditions: recombinant human sPLA2 type I, chromogenic assay, 30 min; read-out: IC50 type I
[5] = molecular target: T2, human type II enzyme (sPLA2) (Homo sapiens, UniProt P14555); test: Inhibition test of human secretory phospholipase A2, chromogenic assay, type II enzyme; assay type: biochemical; conditions: human sPLA2 type II, chromogenic assay, 30 min; read-out: IC50 type II
T2 sequence (P14555 21-144): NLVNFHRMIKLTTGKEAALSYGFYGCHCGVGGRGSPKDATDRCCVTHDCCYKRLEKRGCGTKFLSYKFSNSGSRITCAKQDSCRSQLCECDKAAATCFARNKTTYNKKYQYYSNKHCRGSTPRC

human type V sPLA2 = molecular target: T3, human type V sPLA2 (Homo sapiens, UniProt P39877); test: Inhibition test of human secretory phospholipase A2, chromogenic assay, type V enzyme; assay type: biochemical; conditions: human sPLA2 type V (CHO supernatant), chromogenic assay, 45 min; read-out: IC50 type V
T3 construct: made in house; unpurified culture supernatant
T3 sequence (P39877 21-138): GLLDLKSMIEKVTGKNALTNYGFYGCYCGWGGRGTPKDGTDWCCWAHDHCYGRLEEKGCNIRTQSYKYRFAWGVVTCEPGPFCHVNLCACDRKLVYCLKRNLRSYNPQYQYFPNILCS

human type X sPLA2 [6] = molecular target: T1, human type X sPLA2; test: Type X sPLA2-induced PGE2 production in human colon carcinoma HT-29 cells; assay type: cell-based; conditions: compound 10 μM; TNF-α-treated HT-29 cells; 100 nM human type X sPLA2, 3 h; percentage of PGE2 produced by type X sPLA2 (no treatment group = 100)
Method: Examination 16: Effects of sPLA2 Inhibitors on Type X sPLA2-Induced PGE2 Production in Human Colon Carcinoma Cell Lines, HT-29 Cells.
HT-29 cells were seeded into 24-well plates at a density of 2.5×10^5 cells/well. After incubation for 24 h, the cells were washed three times with PBS and incubated with 30 ng/mL of recombinant human tumor necrosis factor-α (R&D Systems, Inc.) in DMEM medium supplemented with 10% fetal bovine serum for 18 h at 37° C. After washing with PBS, the cells were preincubated with or without test compounds (at a final concentration of 10 μM; dissolved in DMSO) in Hanks' buffered saline containing 0.1% BSA for 10 min at 37° C., and then stimulated with 100 nM purified human type X sPLA2 enzyme in a final volume of 0.5 mL. After incubation for 3 h at 37° C, the culture supernatant was collected following the centrifugation for the removal of floating cells, and its PGE2 content was quantified with an enzyme-immunoassay kit (Cayman Chemicals Co.). From each data, the value in the absence of type X sPLA2 was subtracted. The amount of PGE2 in the presence of each test compound was expressed as the percentage of the PGE2 content produced by the addition of type X sPLA2 enzyme.

Chain of human type I enzyme (sPLA2) (P04054 23-148): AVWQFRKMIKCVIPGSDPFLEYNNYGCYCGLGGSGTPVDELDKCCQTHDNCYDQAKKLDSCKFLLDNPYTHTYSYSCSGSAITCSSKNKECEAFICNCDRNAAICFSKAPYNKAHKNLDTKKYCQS

SMILES: CC(C)Cc1c(C(=O)C(N)=O)c2c(OCC(=O)O)cccc2n1Cc1ccccc1 [Compound I-10]
- Oleic acid release (human type X sPLA2 [1]): −0.2 ± 5.7 %
- pIC50 (human type X sPLA2 [2]): 7.89
- inhibition at 10 µM (human type X sPLA2 [3]): 91.3%
- pIC50 [4]: < 6.15
- pIC50 [5]: < 6.00
- pIC50 (human type V sPLA2): < 6.00
- PGE2 production (human type X sPLA2 [6]): −12.7 ± 7.9 %
